Read-outs that look alike come from different tables or passages of the source.
Legend:
[1] = tested on: reverse transcriptases of the Human Immunodeficiency Virus; conditions: published indications, refs 7c, 7d, cited from earlier work
[2] = Solubility of the halonium reagents in organic solvents; format: physicochemical
[3] = Storage and handling stability of the halonium reagents; format: physicochemical

CC1=CC[C@H]2C(C)(C)[C@@H](Br)CC[C@]2(C)[C@@H]1Cc1cc(O)c(CC(=O)O)cc1O [peyssonoic acid A]
inhibitor of the reverse transcriptases of the Human Immunodeficiency Virus [1]: possessed such activity

C=C1CC[C@H]2C(C)(C)[C@@H](Br)CC[C@]2(C)[C@@H]1Cc1cc(O)c(C=O)cc1O [peyssonol A]
inhibitor of the reverse transcriptases of the Human Immunodeficiency Virus [1]: allosteric inhibitor of the reverse transcriptases | inhibitor of the reverse transcriptases of the Human Immunodeficiency Virus ([1]; listed as peysonnol A): possessed such activity

CC[S+](Br)CC [BDSB, bromodiethylsulfonium bromopentachloroantimonate]
solubility ([2]; acetone, methanol, ethanol, THF, reacts with these solvents): soluble | solubility ([2]; ambient temperature, CH2Cl2, 1,2-dichloroethane, chloroform, toluene): moderately to slightly soluble | solubility ([2]; ambient temperature, MeNO2, EtNO2, MeCN, DMSO, DMF, EtOAc): fully soluble | solubility ([2]; ambient temperature, benzene, hexanes, pentane): insoluble | solubility ([2]; several organic solvents): good solubility | stable for ([3]; ambient temperature, enclosed vial): at least 1 week | stable for ([3]; −20° C.): a year or more

CC[S+](Cl)CC [CDSC, Chlorodiethylsulfonium hexachloroantimonate]
stable for ([3]; −20° C.): at least several months

— US20140243404A1, “UNIQUE HALOGEN-INDUCED CYCLIZATIONS, REAGENTS THEREFOR, AND COMPOUNDS PRODUCED THEREBY” (The Trustees of Columbia University in the City of New York, priority 2010, published 2014)
